# According to patent US12083094B2, “Cannabinoid composition and methods of treatment using the same” (CANNPAL ANIMAL THERAPEUTICS LIMITED, priority 2018, dated 2024):
# Assay: Blood sampling for THC and CBD plasma concentration after single oral dosing
# Details: for concentration at 0 h / concentration at 1 h / concentration at 1.5 h / concentration at 2 h / concentration at 3 h / concentration at 4 h / concentration at 12 h / concentration at 16 h / concentration at 24 h / concentration at 72 h / concentration at 0.67 h / concentration at 6 h / concentration at 8 h / concentration at 32 h / concentration at 48 h: oral, THC level in blood plasma fraction; for AUC: AUC for THC concentration, canine
# Experimental: Two compositions, IVP1 and IVP2, were administered in varying amounts in the study.
# Dosage volumes were calculated prior to Day 0, to provide the target dosage in mg/kg bodyweight based on actual dog bodyweights and IVP active ingredient composition based on the Certificates of Analysis.
# Blood samples of approximately 5 mL were collected at each drug concentration sampling time-point from each animal using 22-gauge needles and 5 mL syringes.
# The data points from Table 4 and Table 5 were also plotted and these graphs are set out in FIGS. 1-16.
# [1] = dog, plasma, individual dogs 1-4, 0.24 mg/kg THC + 0.12 mg/kg CBD oral once
# [2] = dog, plasma, individual dogs 5-8, 0.12 mg/kg THC + 0.24 mg/kg CBD oral once
# [3] = dog, plasma, mean of dogs 1-4, 0.24 mg/kg THC + 0.12 mg/kg CBD oral once
# [4] = dog, plasma, mean of dogs 5-8, 0.12 mg/kg THC + 0.24 mg/kg CBD oral once
smiles,measurement,setting,value
"CCCCCc1cc(O)c2c(c1)OC(C)(C)[C@@H]1CCC(C)=C[C@@H]21 [THC, Δ^9-Tetrahydrocannabinol]",THC in the subject's blood,72 h after administration,detectable
same,concentration at 0 h,[1],0 ng/mL
same,concentration at 1 h,[1],45.2 ng/mL
same,concentration at 1.5 h,[1],30.1 ng/mL
same,concentration at 2 h,[1],25.6 ng/mL
same,concentration at 0 h,[2],0 ng/mL
same,concentration at 2 h,[2],22.3 ng/mL
same,concentration at 3 h,[2],8.19 ng/mL
same,concentration at 4 h,[2],4.19 ng/mL
same,concentration at 12 h,[2],0.56 ng/mL
same,concentration at 16 h,[2],0.34 ng/mL
same,concentration at 24 h,[2],0.23 ng/mL
same,concentration at 72 h,[2],0 ng/mL
same,concentration at 0 h,[3],0 ng/mL
same,concentration at 0.67 h,[3],39 ng/mL
same,concentration at 1 h,[3],40.7 ng/mL
same,concentration at 1.5 h,[3],32.6 ng/mL
same,concentration at 2 h,[3],26.1 ng/mL
same,concentration at 3 h,[3],15.8 ng/mL
same,concentration at 4 h,[3],10.1 ng/mL
same,concentration at 6 h,[3],6.33 ng/mL
same,concentration at 8 h,[3],3.98 ng/mL
same,concentration at 12 h,[3],1.36 ng/mL
same,concentration at 16 h,[3],0.75 ng/mL
same,concentration at 24 h,[3],0.41 ng/mL
same,concentration at 32 h,[3],0.43 ng/mL
same,concentration at 48 h,[3],0.24 ng/mL
same,concentration at 72 h,[3],0.16 ng/mL
same,concentration at 0 h,[4],0 ng/mL
same,concentration at 0.67 h,[4],27.9 ng/mL
same,concentration at 1 h,[4],36.8 ng/mL
same,concentration at 1.5 h,[4],27.7 ng/mL
same,concentration at 2 h,[4],18 ng/mL
same,concentration at 3 h,[4],7.84 ng/mL
same,concentration at 4 h,[4],4.29 ng/mL
same,concentration at 6 h,[4],3 ng/mL
same,concentration at 8 h,[4],2.38 ng/mL
same,concentration at 12 h,[4],0.65 ng/mL
same,concentration at 16 h,[4],0.44 ng/mL
same,concentration at 24 h,[4],0.28 ng/mL
same,concentration at 32 h,[4],0.28 ng/mL
same,concentration at 48 h,[4],0.09 ng/mL
same,concentration at 72 h,[4],0 ng/mL
same,AUC(0-inf),"dog, plasma, po",0.6 ng·h/mL
same,Cmax,"dog, plasma, po",19 to 71.3 ng/mL
same,half-life,"dog, plasma, po",18.4 h
same,AUC,"dog, plasma, po, 0.12 mg/kg, 0.12 mg/kg THC in combination with 0.24 mg/kg CBD",90 to 110 ng·h/mL
same,AUC,"dog, plasma, po, 0.24 mg/kg, 0.24 mg/kg THC in combination with 0.12 mg/kg CBD",145 to 170 ng·h/mL
